Measurements published in patent publication US12630498B2 (Genzyme Corporation, priority 2019, dated 2026).

Assays:
[1] = biological target: T1, CFTR-mediated transepithelial chloride transport in primary human bronchial epithelial cells from a ΔF508 homozygous CF donor (Homo sapiens, UniProt P13569, DEL508-508); test: TECC24 recording of CFTR-mediated transepithelial chloride transport in CF-HBE cells (AUC fold over DMSO); assay type: cell-based; settings: test agent 10 μM, 48 hours incubation, AUC of forskolin-stimulated IEQ relative to DMSO
T1 construct: Primary human bronchial epithelial cells from a ΔF508 homozygous CF donor; host or cells: primary CF-HBE cells, ΔF508 homozygous donor
T1 sequence (P13569 with tags, fused parts or gaps DEL508-508): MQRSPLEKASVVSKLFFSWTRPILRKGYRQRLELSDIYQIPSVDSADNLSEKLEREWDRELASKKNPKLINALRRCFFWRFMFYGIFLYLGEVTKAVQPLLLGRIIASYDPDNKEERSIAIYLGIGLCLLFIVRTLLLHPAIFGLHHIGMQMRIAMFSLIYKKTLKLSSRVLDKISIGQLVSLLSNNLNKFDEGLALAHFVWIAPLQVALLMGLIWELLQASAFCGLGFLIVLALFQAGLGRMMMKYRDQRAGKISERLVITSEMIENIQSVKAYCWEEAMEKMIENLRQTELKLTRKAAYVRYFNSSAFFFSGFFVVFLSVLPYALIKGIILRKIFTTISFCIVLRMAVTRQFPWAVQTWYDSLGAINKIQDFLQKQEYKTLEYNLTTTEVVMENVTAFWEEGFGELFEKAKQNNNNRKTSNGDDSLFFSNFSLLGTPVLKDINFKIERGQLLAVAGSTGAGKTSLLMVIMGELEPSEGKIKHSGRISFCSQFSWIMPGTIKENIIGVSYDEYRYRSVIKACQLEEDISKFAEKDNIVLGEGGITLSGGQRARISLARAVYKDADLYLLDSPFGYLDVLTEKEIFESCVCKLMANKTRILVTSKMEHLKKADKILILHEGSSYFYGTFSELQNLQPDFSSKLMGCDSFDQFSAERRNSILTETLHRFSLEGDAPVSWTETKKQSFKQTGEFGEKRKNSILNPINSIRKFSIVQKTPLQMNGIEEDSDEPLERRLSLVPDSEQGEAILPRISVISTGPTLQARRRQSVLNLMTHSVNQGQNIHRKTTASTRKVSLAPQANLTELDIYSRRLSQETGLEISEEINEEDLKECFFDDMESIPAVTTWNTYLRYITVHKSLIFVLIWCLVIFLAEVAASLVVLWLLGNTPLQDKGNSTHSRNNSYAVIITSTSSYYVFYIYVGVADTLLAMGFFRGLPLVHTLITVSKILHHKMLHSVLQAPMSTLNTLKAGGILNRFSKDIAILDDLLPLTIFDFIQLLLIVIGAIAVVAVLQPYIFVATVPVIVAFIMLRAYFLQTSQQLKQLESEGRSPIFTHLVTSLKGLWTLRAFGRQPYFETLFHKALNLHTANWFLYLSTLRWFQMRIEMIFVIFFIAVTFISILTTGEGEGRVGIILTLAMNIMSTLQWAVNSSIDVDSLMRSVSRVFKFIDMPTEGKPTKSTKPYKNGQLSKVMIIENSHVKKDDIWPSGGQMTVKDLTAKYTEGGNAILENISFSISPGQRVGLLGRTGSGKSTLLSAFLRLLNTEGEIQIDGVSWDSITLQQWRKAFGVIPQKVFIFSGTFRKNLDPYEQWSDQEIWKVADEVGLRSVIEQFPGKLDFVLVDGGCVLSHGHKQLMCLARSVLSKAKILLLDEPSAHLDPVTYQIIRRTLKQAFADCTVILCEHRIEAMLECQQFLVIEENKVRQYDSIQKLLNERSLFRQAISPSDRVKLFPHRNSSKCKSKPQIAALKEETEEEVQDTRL
Outline: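 Primary ΔF508/ΔF508 CF-HBE cells on inserts exposed to test agent in IL-13-containing medium for 48 h at 36.5 °C. Current-clamp VT/TEER recording in pH 7.4 HEPES saline with benzamil 10 μM, forskolin 10 μM, then CFTRinh-172 20 μM. AUC of equivalent Cl⁻ current between forskolin and inhibitor, expressed as ratio over vehicle.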

[2] = biological target: T2, human Cystic Fibrosis Transmembrane Conductance Regulator (CFTR) harboring the ΔF508 mutation (Homo sapiens, UniProt P13569, DEL508-508); test: H441 cell ΔF508-CFTR-HRP cell surface assay (Emax and EC50); assay type: cell-based; settings: for Emax: NCI-H441, NA = Not active
T2 construct: expressed in transfected cells; host or cells: H441 carcinoma line (G418-selected)
T2 sequence (P13569 with tags, fused parts or gaps DEL508-508): as above
Outline: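 H441 and 41o- bronchial epithelial cells expressing ΔF508-CFTR with an extracellular-loop-4 HRP tag were treated with a 15-point compound series (24.5–0.001 μM) for two nights, H441 at 27° C, 41o- at 37° C with 0.0005 mg/ml doxycycline. Surface HRP luminescence read; % of maximum VX809 signal and EC50 derived.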

| TECC24 AUC fold over DMSO @10 μM [1] | EC50 [2] | Emax [2] | Compound |
| --- | --- | --- | --- |
| C (“C” refers to AUC @10 uM <4) | 200 nM | 196% | O=C(N[C@H](C(=O)O)C(c1ccccc1)c1ccccc1)c1ccc2ccccc2c1OCc1ccc(C(F)(F)F)c(F)c1 [Example 130, (S)-2-(1-((3-fluoro-4-(trifluoromethyl)benzyl)oxy)-2-naphthamido)-3,3-diphenylpropanoic Acid] |
| A (“A” refers to AUC @10 uM >6) | 100 nM | 186% | CCC(C)(C)[C@H](NC(=O)c1ccc2ccc(Cl)cc2c1OCc1ccc(OC(F)(F)F)cc1)C(=O)O [Example 277, (S)-2-(7-chloro-1-((4-(trifluoromethoxy)benzyl)oxy)-2-naphthamido)-3,3-dimethylpentanoic Acid] |
| A (“A” refers to AUC @10 uM >6) | 200 nM | 195% | CCC(C)(C)[C@H](NC(=O)c1ccc2ccc(F)cc2c1OCc1ccc(C(F)(F)F)cc1)C(=O)O [Example 274, (2S)-2-[[7-fluoro-1-[[4-(trifluoromethyl)phenyl]methoxy]naphthalene-2-carbonyl]amino]-3,3-dimethyl-pentanoic Acid] |
| A (“A” refers to AUC @10 uM >6) | 200 nM | 227% | CC1([C@H](NC(=O)c2ccc3ccc(C(F)(F)F)cc3c2OCc2ccc(C(F)(F)F)cc2)C(=O)O)CCC1 [Example 299, (S)-2-(1-methylcyclobutyl)-2-(7-(trifluoromethyl)-1-((4-(trifluoromethyl)benzyl)oxy)-2-naphthamido)acetic Acid] |
| A (“A” refers to AUC @10 uM >6) | 300 nM | 309% | CCC(C)(C)[C@H](NC(=O)c1ccc2ccc(C)cc2c1OCc1ccc(OC(F)(F)F)cc1)C(=O)O [Example 280, (S)-3,3-dimethyl-2-(7-methyl-1-((4-(trifluoromethoxy)benzyl)oxy)-2-naphthamido)pentanoic Acid] |
| A (“A” refers to AUC @10 uM >6) | 1300 nM | 140% | C#CC(C)(C)C(NC(=O)c1ccc2ccccc2c1OCc1ccc(OC(F)(F)F)cc1)C(=O)O (stereo not drawn) [Example 234, 3,3-dimethyl-2-[[1-[[4-(trifluoromethoxy)phenyl]methoxy]naphthalene-2-carbonyl]amino]pent-4-ynoic Acid] |
| C (“C” refers to AUC @10 uM <4) | 12000 nM | 29.4% | O=C(N[C@H](C(=O)O)[C@H](O)c1ccccc1)c1ccc2ccccc2c1OCc1ccc(C(F)(F)F)cc1 [Example 129, (2S,3R)-3-hydroxy-3-phenyl-2-(1-((4-(trifluoromethyl)benzyl)oxy)-2-naphthamido)propanoic Acid] |
| C (“C” refers to AUC @10 uM <4) | 700 nM | 63.9% | O=C(N[C@H](C(=O)O)C12CC(C(F)(F)F)(C1)C2)c1ccc2ccccc2c1OCc1ccc(SC(F)(F)F)cc1 [Example 17, (S)-2-(3-(trifluoromethyl)bicyclo[1.1.1]pentan-1-yl)-2-(1-((4-((trifluoromethyl)thio)benzyl)oxy)-2-naphthamido)acetic Acid] |
| B (“B” refers to AUC @10 uM between 4-6) | 500 nM | 80.5% | CCC(C)(C)[C@H](NC(=O)c1ccc2cc(F)ccc2c1OCc1ccc(SC(F)(F)F)cc1)C(=O)O [Example 84, (S)-2-(6-fluoro-1-((4-((trifluoromethyl)thio)benzyl)oxy)-2-naphthamido)-3,3-dimethylpentanoic Acid] |
| C (“C” refers to AUC @10 uM <4) | 3000 nM | 152% | CC(C)(SC1CC2CCC1C2)[C@H](NC(=O)c1ccc2ccccc2c1OCC1CCCCC1)C(=O)O (stereo partly drawn) [Example 175] |
| C (“C” refers to AUC @10 uM <4) | 5700 nM | 82.9% | O=C(N[C@H](C(=O)O)c1ccccc1)c1ccc2ccccc2c1OCc1ccc(C(F)(F)F)cc1 [Example 140, (S)-2-phenyl-2-(1-((4-(trifluoromethyl)benzyl)oxy)-2-naphthamido)acetic Acid] |
| C (“C” refers to AUC @10 uM <4) | 1200 nM | 141% | O=C(N[C@H](C(=O)O)C(c1ccccc1)c1ccccc1)c1ccc2ccccc2c1OCc1nc2ccccc2s1 [Example 212, (S)-2-(1-(benzo[d]thiazol-2-ylmethoxy)-2-naphthamido)-3,3-diphenylpropanoic Acid] |
| A (“A” refers to AUC @10 uM >6) | 200 nM | 232% | CC1([C@H](NC(=O)c2ccc3ccc(Cl)cc3c2OCc2ccc(C(F)(F)F)cc2)C(=O)O)CCC1 [Example 300, (S)-2-(7-chloro-1-((4-(trifluoromethyl)benzyl)oxy)-2-naphthamido)-2-(1-methylcyclobutyl)acetic Acid] |
| A (“A” refers to AUC @10 uM >6) | 100 nM | 284% | CC(C)(C)[C@H](NC(=O)c1ccc2ccc(C(F)F)cc2c1OCc1ccc(OC(F)(F)F)cc1)C(=O)O [Example 245, (2S)-2-[[7-(difluoromethyl)-1-[[4-(trifluoromethoxy)phenyl]methoxy]naphthalene-2-carbonyl]amino]-3,3-dimethyl-butanoic Acid] |
| B (“B” refers to AUC @10 uM between 4-6) | 700 nM | 174% | CC1([C@H](NC(=O)c2ccc3c(F)cccc3c2OCc2ccc(C(F)(F)F)cc2)C(=O)O)CCCC1 [Example 303, (S)-2-(5-fluoro-1-((4-(trifluoromethyl)benzyl)oxy)-2-naphthamido)-2-(1-methylcyclopentyl)acetic Acid] |
| C (“C” refers to AUC @10 uM <4) | 7800 nM | 70.1% | CC(C)(C)[C@H](NC(=O)c1ccc2ccccc2c1OCc1ccc([N+](=O)[O-])cc1)C(=O)O [Example 231, (2S)-3,3-dimethyl-2-[[1-[(4-nitrophenyl)methoxy]naphthalene-2-carbonyl]amino]butanoic Acid] |
| C (“C” refers to AUC @10 uM <4) | 1200 nM | 63.5% | CC(C)(SCC1CC1(F)F)[C@H](NC(=O)c1ccc2cc(F)ccc2c1OCc1ccc(SC(F)(F)F)cc1)C(=O)O (stereo partly drawn) [Example 167, (2R)-3-(((2,2-difluorocyclopropyl)methyl)thio)-2-(6-fluoro-1-((4-((trifluoromethyl)thio)benzyl)oxy)-2-naphthamido)-3-methylbutanoic Acid] |
| C (“C” refers to AUC @10 uM <4) | 4100 nM | 60.7% | O=C(N[C@H](C(=O)O)C1CCCC1)c1ccc2ccccc2c1OCC1CCC(F)(F)CC1 [Example 155, (S)-2-cyclopentyl-2-(1-((4,4-difluorocyclohexyl)methoxy)-2-naphthamido)acetic Acid] |
| C (“C” refers to AUC @10 uM <4) | 2600 nM | 86.1% | O=C(N[C@H](C(=O)O)C1CCCC1)c1ccc2ccccc2c1OCc1ccc(SC(F)(F)F)cc1 [Example 114, (S)-2-cyclopentyl-2-(1-((4-((trifluoromethyl)thio)benzyl)oxy)-2-naphthamido)acetic Acid] |
